Measurements from ChEMBL document CHEMBL3797052 (Eur J Med Chem, 2016).

Tested on: not listed separately
Assay: Antiproliferative activity against human SF268 cells assessed as cell growth at 10^-6 M after 48 hrs by sulforhodamine B assay
Type: functional
Conditions: SF-268, 48 h, read-out: Activity

Compound | growth at 1 µM
CNC(=O)c1cc(Oc2ccc3nc(NC(=O)Nc4ccc(Cl)c(Cl)c4)sc3c2)ccn1 | 95%

Tested on: MDA-MB-231
Assay: Antiproliferative activity against human MDA-MB-231 cells assessed as cell growth at 10^-8 M after 48 hrs by sulforhodamine B assay
Type: functional
Conditions: MDA-MB-231, 48 h, read-out: Activity

Compound | growth at 0.01 µM
CNC(=O)c1cc(Oc2ccc3nc(NC(=O)Nc4ccc(Cl)c(Cl)c4)sc3c2)ccn1 | 89%

Tested on: SK-MEL-2
Assay: Antiproliferative activity against human SK-MEL-2 cells assessed as cell growth at 10^-8 M after 48 hrs by sulforhodamine B assay
Type: functional
Conditions: SK-MEL-2, 48 h, read-out: Activity

Compound | growth at 0.01 µM
CNC(=O)c1cc(Oc2ccc3nc(NC(=O)Nc4ccc(Cl)c(Cl)c4)sc3c2)ccn1 | 115%

Tested on: not listed separately
Assay: Antiproliferative activity against human NCI-ADR-RES cells assessed as cell growth at 10^-7 M after 48 hrs by sulforhodamine B assay
Type: functional
Conditions: read-out: Activity

Compound | growth at 0.1 µM
CNC(=O)c1cc(Oc2ccc3nc(NC(=O)Nc4ccc(Cl)c(Cl)c4)sc3c2)ccn1 | 98%

Tested on: not listed separately
Assay: Antiproliferative activity against human HCT15 cells assessed as growth inhibition after 48 hrs by sulforhodamine B assay
Type: functional
Conditions: HCT-15, 48 h

Compound | GI50 | LC50 | TGI
CNC(=O)c1cc(Oc2ccc3nc(NC(=O)Nc4ccc(Cl)c(Cl)c4)sc3c2)ccn1 | 3.71 µM | > 100 µM | > 100 µM

Tested on: not listed separately
Assay: Antiproliferative activity against human UACC62 cells assessed as cell growth at 10^-4 M after 48 hrs by sulforhodamine B assay
Type: functional
Conditions: UACC-62, 48 h, read-out: Activity

Compound | growth at 100 µM
CNC(=O)c1cc(Oc2ccc3nc(NC(=O)Nc4ccc(Cl)c(Cl)c4)sc3c2)ccn1 | -20%

Tested on: not listed separately
Assay: Antiproliferative activity against human HL-60(TB) cells assessed as cell growth at 10^-7 M after 48 hrs by sulforhodamine B assay
Type: functional
Conditions: HL-60, 48 h, read-out: Activity

Compound | growth at 0.1 µM
CNC(=O)c1cc(Oc2ccc3nc(NC(=O)Nc4ccc(Cl)c(Cl)c4)sc3c2)ccn1 | 102%

Tested on: HT-29
Assay: Antiproliferative activity against human HT-29 cells assessed as cell growth at 10^-7 M after 48 hrs by sulforhodamine B assay
Type: functional
Conditions: HT-29, 48 h, read-out: Activity

Compound | growth at 0.1 µM
CNC(=O)c1cc(Oc2ccc3nc(NC(=O)Nc4ccc(Cl)c(Cl)c4)sc3c2)ccn1 | 105%

Tested on: MDA-MB-231
Assay: Antiproliferative activity against human MDA-MB-231 cells assessed as cell growth at 10^-6 M after 48 hrs by sulforhodamine B assay
Type: functional
Conditions: MDA-MB-231, 48 h, read-out: Activity

Compound | growth at 1 µM
CNC(=O)c1cc(Oc2ccc3nc(NC(=O)Nc4ccc(Cl)c(Cl)c4)sc3c2)ccn1 | 85%

Tested on: Malme-3M
Assay: Antiproliferative activity against human MALME-3M cells assessed as cell growth at 10^-7 M after 48 hrs by sulforhodamine B assay
Type: functional
Conditions: read-out: Activity

Compound | growth at 0.1 µM
CNC(=O)c1cc(Oc2ccc3nc(NC(=O)Nc4ccc(Cl)c(Cl)c4)sc3c2)ccn1 | 82%

Tested on: not listed separately
Assay: Antiproliferative activity against human HOP62 cells assessed as cell growth at 10^-8 M after 48 hrs by sulforhodamine B assay
Type: functional
Conditions: HOP-62, 48 h, read-out: Activity

Compound | growth at 0.01 µM
CNC(=O)c1cc(Oc2ccc3nc(NC(=O)Nc4ccc(Cl)c(Cl)c4)sc3c2)ccn1 | 105%

Tested on: NCI-H322M
Assay: Antiproliferative activity against human NCI-H322M cells assessed as growth inhibition after 48 hrs by sulforhodamine B assay
Type: functional
Conditions: not given

Compound | GI50 | LC50 (50% lethal concentration)
CNC(=O)c1cc(Oc2ccc3nc(NC(=O)Nc4ccc(Cl)c(Cl)c4)sc3c2)ccn1 | 2.45 µM | > 100 µM

Target: Voltage-gated inwardly rectifying potassium channel KCNH2 (Homo sapiens, UniProt Q12809)
Assay: Inhibition of human ERG assessed as reduction in channel current by automated patch-clamp electrophysiology assay
Conditions: not given

Voltage-gated inwardly rectifying potassium channel KCNH2, sequence (Q12809 whole entry): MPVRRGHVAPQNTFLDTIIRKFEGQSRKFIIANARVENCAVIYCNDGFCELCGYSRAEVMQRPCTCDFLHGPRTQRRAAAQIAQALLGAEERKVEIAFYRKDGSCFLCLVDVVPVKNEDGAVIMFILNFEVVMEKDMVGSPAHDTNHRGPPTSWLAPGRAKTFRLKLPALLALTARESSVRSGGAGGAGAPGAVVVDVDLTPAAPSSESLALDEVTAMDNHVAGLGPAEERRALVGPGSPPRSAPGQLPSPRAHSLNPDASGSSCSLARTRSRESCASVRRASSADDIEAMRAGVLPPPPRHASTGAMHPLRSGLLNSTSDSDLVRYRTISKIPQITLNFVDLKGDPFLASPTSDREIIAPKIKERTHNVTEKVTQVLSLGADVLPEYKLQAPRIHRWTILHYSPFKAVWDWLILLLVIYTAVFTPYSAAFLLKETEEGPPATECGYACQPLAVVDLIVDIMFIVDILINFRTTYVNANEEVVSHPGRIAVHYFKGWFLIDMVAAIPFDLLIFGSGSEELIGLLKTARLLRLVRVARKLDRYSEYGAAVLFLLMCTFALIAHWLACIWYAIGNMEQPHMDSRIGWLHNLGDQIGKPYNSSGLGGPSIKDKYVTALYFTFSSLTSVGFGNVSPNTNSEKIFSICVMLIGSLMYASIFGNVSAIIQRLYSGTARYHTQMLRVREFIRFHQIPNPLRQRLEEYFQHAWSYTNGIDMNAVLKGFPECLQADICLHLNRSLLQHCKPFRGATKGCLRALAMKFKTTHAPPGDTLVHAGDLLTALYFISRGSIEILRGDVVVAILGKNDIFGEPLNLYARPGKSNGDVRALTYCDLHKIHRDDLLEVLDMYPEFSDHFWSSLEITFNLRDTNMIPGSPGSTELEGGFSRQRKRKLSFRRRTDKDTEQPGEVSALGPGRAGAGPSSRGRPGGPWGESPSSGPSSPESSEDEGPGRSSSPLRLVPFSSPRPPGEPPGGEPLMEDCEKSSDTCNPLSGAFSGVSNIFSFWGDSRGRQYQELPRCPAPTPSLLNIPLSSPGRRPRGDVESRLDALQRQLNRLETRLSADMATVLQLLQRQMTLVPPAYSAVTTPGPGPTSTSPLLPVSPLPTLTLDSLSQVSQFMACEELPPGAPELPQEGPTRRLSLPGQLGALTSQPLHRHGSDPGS

Compound | IC50
CNC(=O)c1cc(Oc2ccc3nc(NC(=O)Nc4ccc(Cl)c(Cl)c4)sc3c2)ccn1 | > 100 µM

Tested on: not listed separately
Assay: Antiproliferative activity against human RPMI8226 cells assessed as cell growth at 10^-4 M after 48 hrs by sulforhodamine B assay
Type: functional
Conditions: RPMI-8226, 48 h, read-out: Activity

Compound | growth at 100 µM
CNC(=O)c1cc(Oc2ccc3nc(NC(=O)Nc4ccc(Cl)c(Cl)c4)sc3c2)ccn1 | 15%

Tested on: A549
Assay: Antiproliferative activity against human A549/ATCC cells assessed as cell growth at 10^-6 M after 48 hrs by sulforhodamine B assay
Type: functional
Conditions: A549, 48 h, read-out: Activity

Compound | growth at 1 µM
CNC(=O)c1cc(Oc2ccc3nc(NC(=O)Nc4ccc(Cl)c(Cl)c4)sc3c2)ccn1 | 93%

Tested on: not listed separately
Assay: Antiproliferative activity against human RXF393 cells assessed as cell growth at 10^-7 M after 48 hrs by sulforhodamine B assay
Type: functional
Conditions: RXF 393, 48 h, read-out: Activity

Compound | growth at 0.1 µM
CNC(=O)c1cc(Oc2ccc3nc(NC(=O)Nc4ccc(Cl)c(Cl)c4)sc3c2)ccn1 | 101%

Tested on: MCF7
Assay: Antiproliferative activity against human MCF7 cells assessed as cell growth at 10^-8 M after 48 hrs by sulforhodamine B assay
Type: functional
Conditions: MCF7, 48 h, read-out: Activity

Compound | growth at 0.01 µM
CNC(=O)c1cc(Oc2ccc3nc(NC(=O)Nc4ccc(Cl)c(Cl)c4)sc3c2)ccn1 | 87%

Tested on: not listed separately
Assay: Antiproliferative activity against human BT549 cells assessed as cell growth at 10^-4 M after 48 hrs by sulforhodamine B assay
Type: functional
Conditions: BT-549, 48 h, read-out: Activity

Compound | growth at 100 µM
CNC(=O)c1cc(Oc2ccc3nc(NC(=O)Nc4ccc(Cl)c(Cl)c4)sc3c2)ccn1 | 6%
